What all share (assay): NCI tumour cell line growth inhibition, 48 h
Assay [1] relates to CCRF-CEM leukemia.
Assay [2] relates to HS 578T breast.
Assay [3] relates to EKVX NSCLC.
The subject of assay [4] is SK-MEL-2 melanoma.
For assay [5], the system named is SF-295 CNS.
The test system of assay [6] is SW-620 colon.
Assay [7] has as its system SK-MEL-5 melanoma.
Assay [8] has as its system HCT-116 colon.
The test system of assay [9] is RXF 393 renal.
The test system of assay [10] is MDA-MB-435.
The subject of assay [11] is UO-31 renal.
In assay [12] the test system is SN12C renal.
In assay [13] the test system is TK-10 renal.
Assay [14] has as its system UACC-257 melanoma.
For assay [15], the system named is A549 NSCLC.
In assay [16] the test system is MALME-3M melanoma.

This note sets out measurements from PubChem BioAssay (NCI).

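Cultured in 96-well plates, cells were exposed to test compound for 48 hours across five concentrations. Definition used: TGI = concentration required for complete inhibition of growth.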

With `COc1ccc(N=NC(=O)NC(Cc2ccccc2)C(=O)O)cc1` (stereo not drawn), the TGI in [1], in [2], in [3], in assay [4], in assay [5] and in assay [6] was over 100 µM throughout. The TGI in assay [7], in assay [8], in [9], in [10], in [11] and in assay [12] was over 100 µM throughout. The TGI in [13], in assay [14], in assay [15] and in assay [16] was over 100 µM each time.
With `CC(=O)C(=[N+]=[N-])C(=O)N1CCOC1=O`, the TGI in assay [1], in assay [2], in assay [3], in [4], in assay [5] and in assay [6] was over 10 µM in each case. Moreover, the TGI in assay [7], in assay [8], in assay [9], in assay [10], in [11] and in [12] was over 10 µM in each case. Also, the TGI in assay [13], in assay [14], in assay [15] and in [16] was over 10 µM each time.
As for `Cc1cc(S(=O)(=O)Nc2n[nH]c(Nc3ccc(Cl)cc3)n2)c(S)cc1Cl`, the TGI in assay [1], in assay [2], in assay [3], in assay [4], in assay [5] and in [6] was over 100 µM each time. In addition, the TGI in [7], in assay [8], in assay [9], in [10], in [11] and in [12] was over 100 µM throughout. The TGI in assay [13], in [14], in assay [15] and in assay [16] was over 100 µM throughout.
For the molecule `O=c1ccn(CC2(CO)CCC2)c(=O)[nH]1`, the TGI in assay [1], in assay [2], in [3], in assay [4], in assay [5] and in assay [6] was over 100 µM in each case. For the same molecule, the TGI in [7], in assay [8], in [9], in assay [10], in assay [11] and in assay [12] was over 100 µM in each case. Also, the TGI in assay [13], in assay [14], in assay [15] and in assay [16] was over 100 µM in each case.
For the molecule `O=C(O)CCCC(=O)Nn1c(Cc2ccc(Cl)cc2)n[nH]c1=O`, the TGI in assay [1], in assay [2], in [3], in assay [4], in assay [5] and in [6] was over 100 µM each time. The TGI in assay [7], in assay [8], in assay [9], in assay [10], in assay [11] and in [12] was over 100 µM in each case. The TGI in assay [13], in assay [14], in assay [15] and in assay [16] was over 100 µM each time.
Take `N#Cc1cc(C#N)c(N)nc1N`: the TGI in [1], in assay [2], in [3], in assay [4], in assay [5] and in assay [6] was over 100 µM each time. Further, the TGI in assay [7], in assay [8], in assay [9], in assay [10], in [11] and in [12] was over 100 µM throughout. The TGI in assay [13], in assay [14], in assay [15] and in [16] was over 100 µM in each case.
`O=C(CC(=O)N1N=C(N2CCCCC2)CC1c1ccccc1)Nc1ccccc1` (stereo not drawn): the TGI in assay [1], in assay [2], in [3], in assay [4], in [5] and in assay [6] was over 100 µM each time. The TGI in [7], in assay [8], in assay [9], in assay [10], in [11] and in assay [12] was over 100 µM throughout. For the same molecule, the TGI in [13], in assay [14], in assay [15] and in [16] was over 100 µM in each case.
With `NC1=CN(CCCO)C2=N/C(=C\c3ccccc3)C(=O)N12`, the TGI in [1], in assay [2], in [3], in assay [4], in assay [5] and in [6] was over 100 µM in each case. Besides, the TGI in assay [7], in assay [8], in assay [9], in assay [10], in assay [11] and in assay [12] was over 100 µM each time. For the same molecule, the TGI in assay [13], in assay [14], in assay [15] and in [16] was over 100 µM each time.
As for `O=C(NC1(c2cc3ccccc3s2)CCCCC1)C1CCC1`, the TGI in [1] was over 100 µM; in [2], 83.7 µM; in assay [3], over 100 µM; in [4] it was over 100 µM; in [5], over 100 µM; in assay [6], over 100 µM. For the same molecule, the TGI in assay [7], in assay [8], in assay [9], in [10], in [11] and in [12] was over 100 µM each time. Further, the TGI in assay [13], in assay [14], in assay [15] and in assay [16] was over 100 µM in each case.
For the molecule `CC(C)C1C(=O)N(c2c(F)c(F)c(F)c(F)c2F)C(=S)N1CCS(=O)c1ccccc1` (stereo not drawn), the TGI came to 42.3 µM in [1]; 62.6 µM in assay [2]; 31.3 µM in assay [3]; 32.8 µM in assay [4]; 33.1 µM in assay [5]; 35.5 µM in assay [6]. For the same molecule, the TGI in assay [7] was determined as 27.3 µM; in [8], 34.7 µM; in assay [9], 35.4 µM; in assay [10], 32.3 µM; in assay [11], 28.6 µM; in [12], 31 µM. For the same molecule, the TGI came to 52 µM in assay [13], 35.5 µM in [14], 40.1 µM in assay [15] and 30.2 µM in assay [16].
Regarding `C=C=C(CC1CCCCC1=O)S(=O)(=O)c1ccccc1` (stereo not drawn), the TGI in [1] was 7.24 µM; in [2], over 10 µM; in [3], over 10 µM; in [4], over 10 µM; in assay [5], over 10 µM; in assay [6] it was over 9.53 µM. The TGI in assay [7] is over 10 µM; in [8], over 4.94 µM; in assay [9] it was over 10 µM; in assay [10], over 10 µM; in assay [11], over 10 µM; in assay [12], over 10 µM. The TGI in assay [13], in [14], in assay [15] and in assay [16] was over 10 µM in each case.
As for `COc1cc(OC)c2c(c1)OC(c1ccccc1)CC2=O` (stereo not drawn), the TGI in assay [1], in assay [2], in [3], in [4], in assay [5] and in assay [6] was over 10 µM in each case. The TGI in assay [7], in [8], in assay [9], in [10], in assay [11] and in assay [12] was over 10 µM in each case. Besides, the TGI in assay [13], in assay [14], in assay [15] and in assay [16] was over 10 µM in each case.
Regarding `C=CCN(c1cc(OCc2ccccc2)c2[nH]cc(C)c2c1)S(C)(=O)=O`, the TGI in [1] was over 100 µM; in assay [2] it was over 100 µM; in [3], 67.9 µM; in assay [4], over 100 µM; in assay [5], over 100 µM; in assay [6], over 100 µM. In addition, the TGI in assay [7] was over 100 µM; in [8] it was over 100 µM; in assay [9], 71.4 µM; in [10] it was over 100 µM; in [11], over 100 µM; in assay [12], over 100 µM. Besides, the TGI in [13] was over 100 µM; in [14] it was over 100 µM; in assay [15] it was over 100 µM; in assay [16] it was 88.7 µM.
In the case of `CC(C)OC(=O)c1ccc(CCC2=CC(=O)C=CC2=O)cc1`, the TGI is 10.9 µM in assay [1]; 50 µM in [2]; 23.8 µM in [3]; 43.1 µM in assay [4]; 90.9 µM in [5]; 19.1 µM in [6]. Moreover, the TGI in [7] was 30 µM; in [8], 27 µM; in assay [9], 25.1 µM; in assay [10] it was 39.8 µM; in assay [11], 14.2 µM; in assay [12] it was 26.5 µM. The TGI in assay [13] is 22.4 µM; in assay [14], 25.6 µM; in [15], over 79.7 µM; in assay [16], 15.9 µM.
For the molecule `O=c1cc(N=Nc2ccc(Br)cc2)[nH]c(=S)[nH]1`, the TGI was 54.5 µM in assay [1]; over 100 µM in [2]; 39.6 µM in [3]; 33.3 µM in assay [4]; over 100 µM in assay [5]; 64.5 µM in [6]. The TGI is over 100 µM in assay [7]; 35.6 µM in [8]; 45.4 µM in assay [9]; 38.1 µM in assay [10]; over 100 µM in [11]; over 100 µM in [12]. In addition, the TGI is 32.1 µM in assay [13], 67.7 µM in [14], over 100 µM in [15] and 30.8 µM in assay [16].
With `CCCCCCCCCCCCCCCCCc1cccc(OCOCCOC)c1C(=O)O`, the TGI in assay [1] was over 77.5 µM; in [2], 42.6 µM; in assay [3], 38.7 µM; in assay [4], 39.2 µM; in assay [5] it was 35.5 µM; in assay [6] it was 44.3 µM. For the same molecule, the TGI in [7] was found to be 39.1 µM; in assay [8], 39.1 µM; in assay [9], 37.7 µM; in assay [10], 40.9 µM; in assay [11], 31.7 µM; in assay [12] it was 46.6 µM. Further, the TGI was found to be 34.3 µM in [13], 36.6 µM in assay [14], 42.1 µM in assay [15] and 22.2 µM in assay [16].
For `COC(=O)/C=C1\C(=O)N(C(C)=O)c2ccc(Br)cc21`, the TGI in assay [1] was found to be 4.84 µM; in assay [2], 36.8 µM; in assay [3], 32.1 µM; in assay [4] it was 27.7 µM; in [5] it was 31.6 µM; in [6], 25.9 µM. Further, the TGI in assay [7] turned out to be 23 µM; in [8], 19.8 µM; in assay [9] it was 21.2 µM; in assay [10], 22 µM; in assay [11] it was 3.91 µM; in assay [12], 18.3 µM. Also, the TGI in [13] stood at 14.6 µM; in assay [14] it was 22.8 µM; in assay [15] it was 36 µM; in [16], 35.3 µM.
Regarding `O=P12N(CCN1c1ccccc1)CCN2c1ccccc1`, the TGI in assay [1], in assay [2], in assay [3], in assay [4], in assay [5] and in [6] was over 100 µM throughout. The TGI in assay [7], in assay [8], in [9], in [10], in assay [11] and in assay [12] was over 100 µM each time. For the same molecule, the TGI in assay [13], in [14], in assay [15] and in [16] was over 100 µM each time.
